In patent EP0216127B1, “6-Phenoxymethyl-4-hydroxytetrahydropyran-2-ones, process for their preparation, their use as medicines, pharmaceutical compositions and intermediates” (HOECHST AKTIENGESELLSCHAFT, priority 1985, dated 1987):
Like-named read-outs stand apart in the source and are kept apart here.

Legend:
[1] = biological target: T1, HMG-CoA-Reduktase (Rattus norvegicus, UniProt P51639); test: Inhibition of HMG-CoA reductase activity in solubilised enzyme preparations from rat liver microsomes; type: biochemical, Ratten; conditions: solubilised enzyme from liver microsomes of cholestyramine-induced rats; substrate (S,R)14C-HMG-CoA; mean of 3 parallel samples; read-out: IC50-Wert M
T1 construct: solubilisierten Enzympräparationen aus Lebermikrosomen von Ratten; from tissue; host or cells: rat liver microsomes (rats induced with cholestyramine after day-night rhythm shift)
T1 sequence (P51639 1-887): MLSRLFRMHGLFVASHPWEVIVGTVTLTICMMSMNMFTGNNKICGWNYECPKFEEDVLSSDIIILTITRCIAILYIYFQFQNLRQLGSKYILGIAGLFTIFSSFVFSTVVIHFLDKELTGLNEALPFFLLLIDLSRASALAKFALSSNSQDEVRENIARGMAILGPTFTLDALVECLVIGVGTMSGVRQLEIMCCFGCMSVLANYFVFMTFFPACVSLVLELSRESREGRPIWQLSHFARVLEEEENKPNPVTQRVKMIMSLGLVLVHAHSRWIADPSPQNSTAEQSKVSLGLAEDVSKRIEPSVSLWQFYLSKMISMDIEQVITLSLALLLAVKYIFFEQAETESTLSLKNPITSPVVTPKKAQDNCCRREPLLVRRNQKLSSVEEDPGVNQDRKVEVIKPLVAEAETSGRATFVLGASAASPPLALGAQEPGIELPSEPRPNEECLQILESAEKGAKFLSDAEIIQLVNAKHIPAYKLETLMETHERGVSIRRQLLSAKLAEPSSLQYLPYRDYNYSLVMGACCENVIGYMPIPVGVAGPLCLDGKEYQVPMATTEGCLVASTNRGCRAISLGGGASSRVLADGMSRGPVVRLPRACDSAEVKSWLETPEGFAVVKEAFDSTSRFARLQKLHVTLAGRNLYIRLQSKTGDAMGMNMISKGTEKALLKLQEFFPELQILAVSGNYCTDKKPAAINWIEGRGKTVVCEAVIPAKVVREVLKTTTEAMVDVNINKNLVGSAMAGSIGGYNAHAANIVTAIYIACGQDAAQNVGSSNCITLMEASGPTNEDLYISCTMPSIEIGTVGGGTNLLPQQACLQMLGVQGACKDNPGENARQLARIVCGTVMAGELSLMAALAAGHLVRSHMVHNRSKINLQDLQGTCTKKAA
From the text: 1) Inhibierung der HMG-CoA-Reduktase-Aktivität an solubilisierten Enzympräparationen aus Ratten-Lebermikrosomen
Die HMG-CoA-Reduktase-Aktivität wurde an solubilisierten Enzympräparationen aus Lebermikrosomen von Ratten gemessen, die nach Umstellung im Tag-Nacht-Rhythmus mit Cholestyramin (@Cuemid) induziert wurden. Als Substrat diente (S,R)^14C-HMG-CoA, die Konzentration von NADPH wurde während der Inkubation durch ein regenerierendes System aufrechterhalten. Die Abtrennung von ^14C-Me- valonat von Substrat und anderen Produkten (z.B. ^14C-HMG) erfolgte über Säulenelution, wobei das Elutionsprofil jeder Einzelprobe ermittelt wurde. Auf die ständige Mitführung von ^3H-Mevalonat wurde verzichtet, weil es bei der Bestimmung um die Relativangabe der Hemmwirkung handelt. In eine Versuchsreihe wurden jeweils die enzymfreie Kontrolle, der enzymhaltige Normalansatz (= 100%) und solche mit Präparatezusätzen zusammen behandelt. Jeder Einzelwert wurde als Mittelwert aus 3 Parallelproben gebildet. Die Signifikanz der Mittelwertsunterschiede zwischen präparatefreien und präparatehaltigen Proben wurde nach dem t-Test beurteilt. Nach der oben beschriebenen Methode wurden von den erfindungsgemäßen Verbindungen z.B. folgende Hemmwerte auf die HMG-CoA-Reduktase ermittelt (IC50-Wert M = molare Konzentration der Verbindung, die für eine 50%ige Hemmung erforderlich ist): […]

[2] = biological target: T2, HMG-CoA-Reduktase (Mus musculus, UniProt Q01237); test: Suppression or inhibition of HMG-CoA reductase in cell cultures of fibroblasts (L cells); type: cell-based; conditions: 3 h incubation of confluent L-Zellen in lipoprotein-free medium; molar concentration for 50% inhibition of HMG-CoA reductase activity
T2 construct: dann wurde die HMG-CoA-Reduktaseaktivität der Zellen, modifiziert nach Chang et al; endogenous in cells; host or cells: L cells (fibroblasts)
T2 sequence (Q01237 1-887): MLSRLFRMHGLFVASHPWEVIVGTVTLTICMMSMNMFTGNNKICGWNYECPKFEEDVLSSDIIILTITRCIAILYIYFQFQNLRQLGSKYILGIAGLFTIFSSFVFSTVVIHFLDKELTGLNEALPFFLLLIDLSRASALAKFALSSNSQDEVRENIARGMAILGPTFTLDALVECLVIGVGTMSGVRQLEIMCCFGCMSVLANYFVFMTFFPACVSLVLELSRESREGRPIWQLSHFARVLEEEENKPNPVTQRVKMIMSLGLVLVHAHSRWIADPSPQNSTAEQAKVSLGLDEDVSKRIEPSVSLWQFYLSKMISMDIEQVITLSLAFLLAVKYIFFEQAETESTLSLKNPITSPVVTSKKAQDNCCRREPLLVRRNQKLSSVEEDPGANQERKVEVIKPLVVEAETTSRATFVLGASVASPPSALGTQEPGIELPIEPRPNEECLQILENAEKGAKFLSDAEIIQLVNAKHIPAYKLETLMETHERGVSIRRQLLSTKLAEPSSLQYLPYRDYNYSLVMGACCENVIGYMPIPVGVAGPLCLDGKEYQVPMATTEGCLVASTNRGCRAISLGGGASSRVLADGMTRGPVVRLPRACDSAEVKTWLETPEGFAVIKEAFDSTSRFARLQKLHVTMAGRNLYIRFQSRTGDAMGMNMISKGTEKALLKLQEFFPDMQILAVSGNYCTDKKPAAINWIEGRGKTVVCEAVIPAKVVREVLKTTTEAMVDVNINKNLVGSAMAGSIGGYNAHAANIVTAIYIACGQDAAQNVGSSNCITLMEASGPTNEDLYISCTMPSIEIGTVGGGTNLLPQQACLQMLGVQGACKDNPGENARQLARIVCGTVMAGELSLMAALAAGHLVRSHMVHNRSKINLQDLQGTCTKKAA
From the text: 2. Supprimierung bzw. Inhibierung der HMG-CoA-Reduktase in Zellkulturen von Fibroblasten
Monolayers von Fibroblasten (L-Zellen) in lipoproteinfreiem Nährmedium wurden mit entsprechenden Konzentrationen der Prüfsubstanzen eine bestimmte Zeit (z.B. 3 Stunden) inkubiert, dann wurde die HMG-CoA-Reduktaseaktivität der Zellen, modifiziert nach Chang et al. (J. Biol. Chem. 256, 6174 (1981) bestimmt. Dazu wurden die Zellextrakte mit D, L [^3H]-HMG-CoA inkubiert und das unter der Einwirkung der vorhandenen HMG-CoA-Reduktaseaktivität aus den Zellen gebildete Produkt [3H]-Mevalonat nach Cyclisierung zu [^3H]-Mevalonolacton dünnschichtchromatographisch vom Ausgangsprodukt getrennt und unter Verwendung eines internen Standards von ^14C-Mevalonat die Menge des in der Zeiteinheit gebildeten [3H]-Mevalonats, bezogen auf Zellproteinmenge bestimmt. Die unter Zusatz einer bestimmten Konzentration eines Prüfpräparates gefundene HMG-CoA-Reduktaseaktivität der Zellkultur wurde prozentual auf jene einer gleichbehandelten ohne Prüfpräparat, jedoch gleicher Lösungsmittelkonzentration, bezogen.
Unter der Bedingung einer dreistündigen Inkubationszeit konfluenter L-Zellen im lipoproteinfreien Nährmedium mit den untersuchten Verbindungen wurden folgende für eine 50%ige Hemmung der HMG-CoA-Reduktaseaktivität (ICso) erforderliche molare Konzentration der Prüfpräparate ermittelt: […]

[3] = an der Ratte; cited from earlier work
[4] = im Humanversuch; cited from earlier work

Row | Compound | IC50 [1] | IC50 [2] | further results
1 | COc1ccc(C(c2ccc(F)cc2)c2cc(C)cc(C)c2OC[C@@H]2C[C@@H](O)CC(=O)O2)cc1 (stereo partly drawn) [44 v] | 100 nM | 40000 nM | –
2 | Cc1cc(C)c(OC[C@@H]2C[C@@H](O)CC(=O)O2)c(C(C)c2ccc(F)cc2)c1 (stereo partly drawn) [44 r] | 160 nM | – | –
3 | Cc1cc(C)c(OC[C@@H]2C[C@@H](O)CC(=O)O2)c(C(c2ccc(F)cc2)c2ccc(F)cc2)c1 [44 q] | 70 nM | 50000 nM | –
4 | O=C1C[C@H](O)C[C@@H](COc2c(Cl)cc(Cl)cc2-c2ccccc2)O1 [44 mm] | 190 nM | – | –
5 | CC(O)(CC(=O)O)CC(=O)O [3-Hydroxy-3-methyl-glutarsäure] | – | – | cholesterinsenkende Wirkung [3]: signifikante cholesterinsenkende Wirkung; cholesterinsenkende Wirkung [4]: signifikante cholesterinsenkende Wirkung
6 | Cc1cc(C)c(OC[C@@H]2C[C@@H](O)CC(=O)O2)c(CCc2ccc(F)cc2)c1 [44 m] | 530 nM | – | –
7 | CC(C)(C)C(=O)OCCCc1cc(Cl)cc(CCCOc2ccc(F)cc2)c1OC[C@@H]1C[C@@H](O)CC(=O)O1 [44 l] | 7000 nM | – | –
8 | Cc1cc(C)c(OC[C@@H]2C[C@@H](O)CC(=O)O2)c(Cc2ccc(F)cc2)c1 [44 s] | 400 nM | – | –
9 | Cc1cc(Cl)cc(C(c2ccc(F)cc2)c2ccc(F)cc2)c1OC[C@@H]1C[C@@H](O)CC(=O)O1 [44 bb] | 100 nM | – | –
10 | O=C1C[C@H](O)C[C@@H](COc2c(Cl)cc(Cl)cc2C(=O)C2CCCCC2)O1 [44 nn] | 190 nM | – | –
11 | Cc1cc(Cl)cc(CCCOc2ccc(Cl)cc2)c1OC[C@@H]1C[C@@H](O)CC(=O)O1 [44 x] | 50 nM | 14000 nM | –
12 | Cc1cc(Cl)cc(CC2CCCCC2)c1OC[C@@H]1C[C@@H](O)CC(=O)O1 [44 y] | 75 nM | 15000 nM | –
13 | Cc1cc(C)c(OC[C@@H]2C[C@@H](O)CC(=O)O2)c(C(CC(C)C)c2ccc(F)cc2)c1 (stereo partly drawn) [44 u] | 140 nM | – | –
14 | O=C1C[C@H](O)C[C@@H](COc2c(Cl)cc(Cl)cc2C(CCOc2ccc(F)cc2)c2ccc(F)cc2)O1 (stereo partly drawn) [44 dd] | 150 nM | – | –
15 | O=C1C[C@H](O)C[C@@H](COc2c(Cl)cc(Cl)cc2CC2CCCCC2)O1 [44 kk] | 25 nM | – | –
16 | Cc1cc(C(c2ccc(F)c(C)c2)c2cc(Cl)cc(C)c2OC[C@@H]2C[C@@H](O)CC(=O)O2)ccc1F [44 hh] | 50 nM | – | –
17 | Cc1cc(Cl)cc(CCCOc2ccc(F)cc2)c1OC[C@@H]1C[C@@H](O)CC(=O)O1 [44 i] | 75 nM | 10000 nM | –
18 | C=CCc1cc(Cl)cc(CCCOc2ccc(F)cc2)c1OC[C@@H]1C[C@@H](O)CC(=O)O1 [44 j] | 460 nM | 100000 nM | –
19 | Cc1cc(C)c(OC[C@@H]2C[C@@H](O)CC(=O)O2)c(CCOc2ccc(F)cc2)c1 [44 t] | 500 nM | – | –
20 | Cc1cc(C)c(OC[C@@H]2C[C@@H](O)CC(=O)O2)c(CC2CCCCC2)c1 [44 z] | 100 nM | – | –
